15 compounds from US5140009A (Tap Pharmaceuticals, Inc., priority 1990, dated 1992) can be followed below.

Numbered stars: 1 amine (or outer) side, 2 acyl side, 3 side chain; on linkers, the order of the positions; unused ones are H or OH. Square brackets hold non-standard residues; d marks the D form. Peptide text beside a SMILES is read from it. * marks the point of attachment. Acetyl(1-adamantyl) = O=C(CC12CC3CC(CC(C3)C1)C2)*; Propanoyl(3-(4-F-phenyl)) = O=C(CCc1ccc(F)cc1)*; Propanoyl(3-(4-Cl-Ph)) = O=C(CCc1ccc(Cl)cc1)*; X10 = O=C([C@@H](Cc1cncs1)N[*:1])[*:2]; 1Nal = N[C@@H](Cc1cccc2ccccc12)C(=O)O; Desaminohistidyl = O=C(CCc1c[nH]cn1)*; d1Nal = N[C@H](Cc1cccc2ccccc12)C(=O)O; Acetyl(3-pyridyl) = O=C(Cc1cccnc1)*; Lys(iPr) = CC(C)NCCCC[C@H](N)C(=O)O; NMeY = CN[C@@H](Cc1ccc(O)cc1)C(=O)O; X13 = O=C(CCc1ccc(C(F)(F)F)cc1)*; NMeS = CN[C@@H](CO)C(=O)O; Morpholide = C1CN(*)CCO1; X1 = COc1ccccc1C=CC(=O)*; X2 = O=C(C=Cc1ccccc1)*; CO = O=C([*:1])[*:2]

One test deals with T1, LHRH receptors (Rattus norvegicus, UniProt P30969).
T1 construct: Pituitary membranes containing LHRH receptors are prepared in batches from quick-frozen rat pituitaries; tissue Hilltop Labs; host or cells: rat pituitary membranes
T1 sequence (P30969 1-327): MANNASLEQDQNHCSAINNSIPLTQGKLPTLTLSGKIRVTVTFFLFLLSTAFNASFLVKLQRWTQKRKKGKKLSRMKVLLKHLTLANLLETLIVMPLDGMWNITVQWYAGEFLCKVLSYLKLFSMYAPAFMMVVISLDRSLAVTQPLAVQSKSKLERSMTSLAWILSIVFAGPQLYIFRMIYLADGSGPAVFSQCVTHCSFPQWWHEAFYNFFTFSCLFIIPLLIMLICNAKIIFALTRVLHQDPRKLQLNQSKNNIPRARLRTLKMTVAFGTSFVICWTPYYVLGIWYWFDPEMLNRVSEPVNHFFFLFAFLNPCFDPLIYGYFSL
The test can be described thus: Receptor Binding (radioligand receptor binding assay). Particulars: table 3; rat pituitary membranes, radioiodinated [D-Leu^6 -des Gly^10 ]-LHRH ethyl amide 50 pM, 2 hours at 4° C.; read-out: Receptor Binding pkI (converted).
Take `CCNC(=O)[C@@H]1CCCN1C(=O)[C@H](CCCNC(=N)N)NC(=O)[C@H](CC(C)C)NC(=O)[C@@H](Cc1c[nH]c2ccccc12)NC(=O)[C@H](Cc1ccc(O)cc1)NC(=O)[C@H](CO)NC(=O)[C@H](Cc1c[nH]c2ccccc12)NC(=O)[C@@H](Cc1ccccc1)NC(C)=O` [Compound 134, N-Acetyl-D-Phe-Trp-Ser-Tyr-D-Trp-Leu-Arg-ProNHEt] (Ac-[dF]WSY[dW]LRP-NHEt): the Ki is 0.398 nM.
Same read-out and setting: under `CCNC(=O)[C@@H]1CCCN1C(=O)[C@H](CCCNC(=N)N)NC(=O)[C@H](CC(C)C)NC(=O)[C@@H](Cc1c[nH]c2ccccc12)NC(=O)[C@H](Cc1ccc(O)cc1)N(C)C(=O)[C@H](CO)NC(=O)CC12CC3CC(CC(C3)C1)C2` [Compound 81, N-[(1-Adamantyl)acetyl]-Ser-N-Me-Tyr-D-Trp-Leu-Arg-Pro -NHEt] ({Acetyl(1-adamantyl)}-S[NMeY][dW]LRP-NHEt) stands 0.589 nM; under `CCNC(=O)[C@@H]1CCCN1C(=O)[C@H](CCCNC(=N)N)NC(=O)[C@H](CC(C)C)NC(=O)[C@@H](Cc1c[nH]c2ccccc12)NC(=O)[C@H](Cc1ccc(O)cc1)NC(=O)[C@H](CO)NC(=O)[C@H](Cc1c[nH]c2ccccc12)NC(=O)[C@H](Cc1ccccc1)NC(=O)N1CCOCC1` [Compound 59, N-alpha-Morpholinocarbonyl-Phe-Trp-Ser-Tyr-D-Trp-Leu-Arg-ProNHET] ({Morpholide-CO}-FWSY[dW]LRP-NHEt), 0.00832 nM; under `CCNC(=O)[C@@H]1CCCN1C(=O)[C@H](CCCNC(=N)N)NC(=O)[C@H](CC(C)C)NC(=O)[C@@H](Cc1c[nH]c2ccccc12)NC(=O)[C@H](Cc1ccc(O)cc1)NC(=O)[C@H](CO)NC(=O)C=Cc1ccccc1` [Compound 15, (4-9)[N-(cinnamoyl)-Ser^4 -D-Trp^6 -Pro^9 -NHEt] LHRH] (X2-SY[dW]LRP-NHEt), 7.76 nM.
Consider `CCNC(=O)[C@@H]1CCCN1C(=O)[C@H](CCCNC(=N)N)NC(=O)[C@H](CC(C)C)NC(=O)[C@@H](Cc1c[nH]c2ccccc12)NC(=O)[C@H](Cc1ccc(O)cc1)NC(=O)[C@H](CO)NC(=O)[C@H](Cc1c[nH]c2ccccc12)NC(=O)CCc1ccc(Cl)cc1` [Compound 98, (3-9)[N-(3-(4-Chlorophenyl)propionyl) -Trp^3 -D-Trp^6 -Pro^9 NHEt]LHRH] ({Propanoyl(3-(4-Cl-Ph))}-WSY[dW]LRP-NHEt), for which the Ki was 0.0525 nM.
In the case of `CCNC(=O)[C@@H]1CCCN1C(=O)[C@H](CCCN=C(N)N)NC(=O)[C@H](CC(C)C)NC(=O)[C@@H](Cc1c[nH]c2ccccc12)NC(=O)[C@H](Cc1ccc(O)cc1)NC(=O)[C@H](CO)N(C)C(=O)[C@@H](Cc1c[nH]c2ccccc12)NC(=O)CCc1ccc(F)cc1` [Compound 121] ({Propanoyl(3-(4-F-phenyl))}-[dW][NMeS]Y[dW]LRP-NHEt), the Ki was 0.0955 nM.
Still for that read-out and setting: under `CCNC(=O)[C@@H]1CCCN1C(=O)[C@H](CCCNC(=N)N)NC(=O)[C@H](CC(C)C)NC(=O)[C@@H](Cc1c[nH]c2ccccc12)NC(=O)[C@H](Cc1ccc(O)cc1)NC(=O)[C@H](CO)NC(=O)[C@H](Cc1c[nH]c2ccccc12)NC(=O)[C@H](Cc1c[nH]cn1)NC(=O)CCc1cnc[nH]1` [Compound 69, N-(3-(5-Imidazolyl)propionyl)-His-Trp-Ser-Tyr-D-Trp-Leu-Arg-Pro-NHEt] (Desaminohistidyl-HWSY[dW]LRP-NHEt) stands 1.05 nM; under `CCNC(=O)[C@@H]1CCCN1C(=O)[C@H](CCCNC(=N)N)NC(=O)[C@H](CC(C)C)NC(=O)[C@@H](CC(C)C)NC(=O)[C@H](Cc1ccc(O)cc1)NC(=O)[C@H](CO)NC(=O)Cc1cccnc1` [Compound 40, (4-9)[N-(3-Pyridylacetyl)-Ser4-D-Leu^6 -Pro^9 -NHEt] LHRH] ({Acetyl(3-pyridyl)}-SY[dL]LRP-NHEt), 4370 nM.
As to `CCNC(=O)[C@@H]1CCCN1C(=O)[C@H](CCCNC(=N)N)NC(=O)[C@H](CC(C)C)NC(=O)[C@@H](Cc1c[nH]c2ccccc12)NC(=O)[C@H](Cc1ccc(O)cc1)NC(=O)[C@H](CO)NC(=O)CCc1ccc(C(F)(F)F)cc1` [Compound 79, (4-9)[N-(3-(4-Trifluoromethylphenyl)propionyl)-Ser^4 -D-Trp^6 -Pro^9 NHEt]LHRH] (X13-SY[dW]LRP-NHEt), the Ki is 1.95 nM.
Take `CCNC(=O)[C@@H]1CCCN1C(=O)[C@H](CCCNC(=N)N)NC(=O)[C@H](CC(C)C)NC(=O)[C@@H](Cc1c[nH]c2ccccc12)NC(=O)[C@H](Cc1ccc(O)cc1)NC(=O)[C@H](CO)NC(=O)C=Cc1ccccc1OC` [Compound 16, (4-9)[N-(ortho-Methoxycinnamoyl)-Ser^4 -D-Trp^6 -Pro^9 -NHEt]LHRH] (X1-SY[dW]LRP-NHEt): the Ki is 1.41 nM.

The same test, now with this note: table 4; rat pituitary membranes, radioligand 50 pM, 2 hours at 4° C.; read-out: Receptor Binding pkI (converted).
For `CC(C)C[C@H](NC(=O)[C@@H](CCCCN)NC(=O)[C@H](Cc1ccc(O)cc1)N(C)C(=O)[C@H](CO)NC(=O)[C@@H](Cc1cccc2ccccc12)NC(=O)CCc1ccc(F)cc1)C(=O)N[C@@H](CCCCNC(C)C)C(=O)N1CCC[C@H]1C(=O)N[C@H](C)C(N)=O` [Compound 199, (3-10)[N-(3-(4-Fluorophenyl)propionyl)-D-1-Nal^3 -NMeTyr^5 -D-Lys^6 -Lys^8 (N-epsilon-isopropyl)-D-Ala^10]LHRH] ({Propanoyl(3-(4-F-phenyl))}-[d1Nal]S[NMeY][dK]L[Lys(iPr)]P[dA]-NH2), the Ki is 0.00832 nM.
Consider `CCNC(=O)[C@@H]1CCCN1C(=O)[C@H](CCCNC(=N)N)NC(=O)[C@H](CC(C)C)NC(=O)[C@@H](Cc1c[nH]c2ccccc12)NC(=O)[C@H](Cc1ccc(O)cc1)N(C)C(=O)[C@H](CO)NC(=O)[C@@H](Cc1cccc2ccccc12)NC(=O)CCc1ccc(F)cc1` [Compound 157, (3-9)[N-(3-(4-Fluorophenyl)propionyl)-D -1-Nal^3 -NMeTyr^5 -D-Trp^6 -Pro^9 NHEt]LHRH] ({Propanoyl(3-(4-F-phenyl))}-[d1Nal]S[NMeY][dW]LRP-NHEt), for which the Ki was 0.0479 nM.
The same measure, in the same setting: under `COc1ccc(C[C@H](NC(=O)[C@H](CO)NC(=O)[C@@H](Cc2cccc3ccccc23)NC(=O)CCc2ccc(F)cc2)C(=O)N[C@H](CCCCN)C(=O)N[C@@H](CC(C)C)C(=O)N[C@@H](CCCNC(=N)N)C(=O)N2CCC[C@H]2C(=O)N[C@H](C)C(N)=O)cc1` [Compound 188, (3-10)[N-(3-(4-Fluorophenyl)propionyl)-D-1-Nal^3 -Tyr^5 (OMe)-D-Lys^6 -D-Ala^10]LHRH] ({Propanoyl(3-(4-F-phenyl))}-[d1Nal]SY(Me)[dK]LRP[dA]-NH2) stands 0.00331 nM; under `CCNC(=O)N[C@@H](Cc1ccccc1)C(=O)N[C@@H](Cc1cccc2ccccc12)C(=O)N[C@@H](CO)C(=O)N[C@@H](Cc1ccc(O)cc1)C(=O)N[C@H](Cc1c[nH]c2ccccc12)C(=O)N[C@@H](CC(C)C)C(=O)N[C@@H](CCCNC(=N)N)C(=O)N1CCC[C@H]1C(=O)NCC` [Compound 239, (2-9)[N-(alpha-Ethylaminocarbonyl)-Phe^2-1-Nal^3 -D-Trp^6 -Pro^9 NHEt]LHRH] ({NHEt-CO}-F[1Nal]SY[dW]LRP-NHEt), 0.832 nM.
For the compound `CC(C)C[C@H](NC(=O)[C@@H](Cc1cncs1)NC(=O)[C@H](Cc1ccc(O)cc1)N(C)C(=O)[C@H](CO)NC(=O)[C@@H](Cc1cccc2ccccc12)NC(=O)CCc1ccc(F)cc1)C(=O)N[C@@H](CCCCNC(C)C)C(=O)N1CCC[C@H]1C(=O)N[C@H](C)C(N)=O` [Compound 204, (3-10)[N-(3-(4-Fluorophenyl)propionyl)-D-1-Nal^3 -NMeTyr^5 -D-Thiaz6-Lys^8 (N-epsilon-isopropyl)-D-Ala^10]LHRH] ({Propanoyl(3-(4-F-phenyl))}-[d1Nal]S[NMeY][X10]L[Lys(iPr)]P[dA]-NH2), the Ki was 0.0214 nM.
